Publication PMC6094173, “Releasable and traceless PEGylation of arginine-rich antimicrobial peptides” (Chemical Science, 2017)
Square brackets hold non-standard residues; d marks the D form. Peptide text beside a SMILES is read from it. * marks the point of attachment. FITC = O=C1OC2(c3ccc(O)cc3Oc3cc(O)ccc32)c2ccc(NC(=S)*)cc21; Ahx = NCCCCCC(=O)O

Tests used:
trypsin = assay: Resistance to proteolysis in human serum spiked with trypsin, read out by antibacterial activity; type: in vitro ADME; details: ∼90% human serum with 0.01 wt% trypsin, r.t.; read-out anti-proliferative effect on E. coli
Procedure: (§1) In order to validate that the PEGylated AMPs are resistant to proteolysis, [3 + 2a] (2 kDa) was incubated in ∼90% human serum (final concentration) spiked with 0.01 wt% trypsin for up to 24 h. To prevent de-PEGylation during this incubation period (i.e., to test the protease-resistance of the conjugate rather than the released AMP (known to be degradable; vide infra)), the concentration of [3 + 2a] was maintained high, and a small excess of free 2a was kept in solution. Based on Fig. 2 and 4, these conditions promote the forward PEGylation reaction and disfavor de-PEGylation. Following the incubation period (1 h, 6 h, or 24 h), serum proteins and trypsin were removed to stop proteolysis, and the integrity of the AMP 3 within the conjugate was evaluated via its anti-proliferative effect on E. coli. […]
[…] 5 h t o obtain mid-logarithmic phase organisms (10^9 cfu· mL –1). […] After this period, proteins were immediately removed by addition of 1.5 mL acetonitrile, sedimentation of precipitate by centrifugation, quantitative recovery of the supernatant, and drying by freeze-drying (FreeZone 4.5, Labconco). […] After addition of analyte to the w el l, the mi cr op lat e was in cub at ed at 37 °C for 16 h with shaking, and growth inhibition was determined by measuring absorbance at 620 nm using a Cytation 5 multi- mode microplate reader (BioTek Inc., VT). […]

E. coli B = type: cell-based, Escherichia coli B; details: 16 h
Procedure: as §1
reaction by HPLC using the fluorescence detector. Kinetics were monitored in triplicate. […]
To determine peptide content, a known mass of conjugate was dissolved in 500 µL D2O, and the absorbance of the solution at 452 nm (the FITC dye on the peptide) was compared to a standard curve obtained with the pure peptide. Then, to deter mine the number of moles of mPEG within this solution, a small amount (5 µL) of dimethyl sulfoxide was quantitatively added to a known volume of the D2O solution, and a 1H NMR spectrum recorded. […]

For CC[C@@H](C)[C@@H](NC(=O)[C@H](CCCNC(=N)N)NC(=O)[C@H](CCC(N)=O)NC(=O)[C@@H](NC(=O)[C@H](NC(=O)[C@H](CCCNC(=N)N)NC(=O)[C@H](CCCCN)NC(=O)[C@H](Cc1ccccc1)NC(=O)CNC(=O)CCCCCNC(=S)Nc1ccc2c(c1)C(=O)OC21c2ccc(O)cc2Oc2cc(O)ccc21)[C@H](C)CC)C(C)C)C(=O)N[C@@H](CCCCN)C(=O)N[C@@H](CC(=O)O)C(=O)N[C@@H](Cc1ccccc1)C(=O)N[C@H](CC(C)C)C(=O)N[C@@H](CCCNC(=N)N)C(=O)N[C@@H](CC(N)=O)C(=O)N[C@@H](CC(C)C)C(=O)N[C@H](C(N)=O)C(C)C [compound 3] ({FITC-Ahx}-GFKR[dI]VQR[dI]KDF[dL]RNLV-NH2), the “Time to loss of antimicrobial properties in trypsin-spiked serum” value (trypsin) was “less than 6 h” and the IC50 (E. coli B) was 8 ± 5 µM.
